Counter-ions that a name gives are not always drawn.
The compounds below were run against T1, angiotensin IV receptor (Cavia porcellus, UniProt H0VNM7) (assay: binding capability to angiotensin IV receptor, inhibition of 125I-angiotensin IV binding to guinea pig hippocampus membrane). Conditions: 0.2 nM 125I-angiotensin IV, Hartley guinea pig hippocampus crude membrane, 37° C., 90 minutes, pH 7.4.
T1 construct: The Hartley guinea pig hippocampus was homogenized in a 50 mM Tris hydrochloride buffer solution; from tissue; host or cells: Hartley guinea pig hippocampus, crude membrane (48,000 x g precipitate)
T1 sequence (H0VNM7 1-1025): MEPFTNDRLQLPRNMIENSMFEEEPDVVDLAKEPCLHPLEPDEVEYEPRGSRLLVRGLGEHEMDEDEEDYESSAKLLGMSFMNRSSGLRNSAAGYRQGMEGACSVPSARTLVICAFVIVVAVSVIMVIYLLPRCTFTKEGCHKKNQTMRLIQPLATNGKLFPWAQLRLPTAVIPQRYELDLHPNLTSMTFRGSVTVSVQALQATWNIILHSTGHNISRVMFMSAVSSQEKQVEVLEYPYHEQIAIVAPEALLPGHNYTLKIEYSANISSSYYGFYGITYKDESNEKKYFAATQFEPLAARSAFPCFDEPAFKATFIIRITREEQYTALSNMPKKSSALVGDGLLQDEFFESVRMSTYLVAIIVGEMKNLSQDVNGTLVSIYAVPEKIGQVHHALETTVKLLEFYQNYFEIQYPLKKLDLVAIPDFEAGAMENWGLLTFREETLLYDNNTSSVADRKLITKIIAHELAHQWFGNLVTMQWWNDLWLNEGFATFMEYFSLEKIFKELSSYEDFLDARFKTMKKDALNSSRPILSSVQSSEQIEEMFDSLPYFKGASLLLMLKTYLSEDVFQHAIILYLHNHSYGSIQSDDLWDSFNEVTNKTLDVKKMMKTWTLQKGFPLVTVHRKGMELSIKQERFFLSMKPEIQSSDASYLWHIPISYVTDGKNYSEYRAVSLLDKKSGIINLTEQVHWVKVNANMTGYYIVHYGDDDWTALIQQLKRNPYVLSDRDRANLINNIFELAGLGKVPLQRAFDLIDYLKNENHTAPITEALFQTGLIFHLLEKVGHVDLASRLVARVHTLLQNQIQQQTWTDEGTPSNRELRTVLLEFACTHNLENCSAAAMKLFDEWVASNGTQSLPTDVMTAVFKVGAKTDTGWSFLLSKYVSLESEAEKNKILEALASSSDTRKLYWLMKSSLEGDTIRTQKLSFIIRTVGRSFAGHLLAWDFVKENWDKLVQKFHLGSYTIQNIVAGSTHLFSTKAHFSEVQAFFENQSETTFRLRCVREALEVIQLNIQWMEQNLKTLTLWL
Experimental: The binding capability to angiotensin IV receptor was measured by using Hartley guinea pig hippocampus referring to the method described by Miller-Wing et al., J. Pharmacol. Exp. Ther., vol. 266, pp.1718 (1993). The Hartley guinea pig hippocampus was homogenized in a 50 mM Tris hydrochloride buffer solution (pH 7.4) containing 1 mM ethylenediamine-N,N,N',N'-tetraacetic acid (EDTA) and 100 μM phenylmethanesulfonyl fluoride (PMSF). After centrifugation at 900× g, the resulting supernatant was further centrifuged at 48,000× g. The precipitate was washed once with the same buffer solution and suspended in 50 mM Tris hydrochloride buffer solution (pH 7.4) containing 150 mM sodium chloride, 1 mM EDTA, 100 μM PMSF and 0.1% bovine serum albumin (BSA) to give a protein concentration of […] as a crude membrane specimen. […] The radioactivity on the filter paper was measured by using a gamma-counter. The non-specific bond was measured in the presence of 1 μM angiotensin IV, and the specific bond was calculated by subtracting the non-specific bond from the total bond.
Compound `CCCC[C@H](N)CN[C@@H](Cc1ccc(O)cc1)C(=O)N[C@H](/C=C/c1ccc(-c2ccccc2)cc1)CC(C)C` [Example 21, N'-[(S)-2-aminohexyl]-N-[(S)-(E)-3-([1,1'-biphenyl]-4-yl)-1-(2-methylpropyl)-2-propenyl]-L-tyrosinamide dihydrochloride] has an IC50 of 6 nM. Compound `CCCC[C@H](N)CN[C@@H](Cc1ccc(O)cc1)C(=O)N[C@H](CCc1ccc(C(=O)OC)cc1)CC(C)C` [Example 12, N'-[(S)-2-aminohexyl]-N-[(R)-1-[2-(4-methoxycarbonylphenyl)ethyl]-3-methylbutyl]-L-tyrosinamide dihydrochloride] has an IC50 of 35.1 nM. Compound `CCCC[C@H](N)CN[C@H](CN[C@H](/C=C/c1ccccc1)CC(C)C)Cc1ccc(O)cc1` [Example 29, (S)-(E)-N-[(S)-2-[[(S)-2-aminohexyl]amino]-3-(4-hydroxyphenyl)propyl]-5-methyl-1-phenyl-1-hexen-3-amine trihydrochloride] has an IC50 of 24.2 nM. For `CCCC[C@H](N)CN[C@@H](Cc1ccc(O)cc1)C(=O)N[C@H](CCc1ccc2ccccc2n1)CC(C)C` [Example 24, N'-[(S)-2-aminohexyl]-N-[(R)-3-methyl-1-[2-(2-quinolyl)ethyl]butyl]-L-tyrosinamide dihydrochloride], the IC50 was 3.77 nM. `CCCC[C@H](N)CN[C@H](CN[C@H](CCc1ccccc1)CC(C)C)Cc1ccc(O)cc1` [Example 30, (R)-N-[(S)-2-[[(S)-2-aminohexyl]amino]-3-(4-hydroxyphenyl)propyl]-5-methyl-1-phenylhexan-3-amine trihydrochloride] was tested, and the IC50 was 171 nM. `CCCC[C@H](N)CN[C@@H](Cc1ccc(O)cc1)C(=O)N[C@H](CCc1ccccc1)CC(C)C` [Example 18, N'-[(S)-2-aminohexyl]-N-[(R)-3-methyl-1-[2-phenylethyl]butyl]-L-tyrosinamide dihydrochloride] was tested, and the IC50 was 8.7 nM. `CCCCC[C@@H](NC(=O)[C@H](Cc1ccc(O)cc1)NC[C@@H](N)CCCC)[C@@H](C)CC` [Example 4, N'-[(S)-2-aminohexyl]-N-[(R)-1-[(S)-1-methylpropyl]hexyl]-L-tyrosinamide dihydrochloride] was tested, and the IC50 was 11.5 nM.
